Reference: patent US20210128596A1, “COMPOSITIONS AND METHODS FOR TREATING SEPTIC CARDIOMYOPATHY” (UNIVERSITY OF PENNSYLVANIA, priority 2017, published 2021)
Entries after “also recorded” stand apart in the source; their conditions may differ.

Key:
AC16 cells [1] = experiment: Mitochondrial number (Mitotracker Red) in LPS-treated AC16 cells; type: cell-based, human
Experimental: AC16 cells were either left untreated or treated for 12 hours with Liposaccharide (LPS) in the absence or presence of SDG, and mitochondria were stained.
To assess changes in the mitochondrial number, LPS stimulated AC16 cells and adult cardiomyocytes isolated 12 hours post-CLP were stained with 200 nM Mitotracker Red (M22425, Molecular Probes), and incubated for 30 minutes in the dark. Excess Mitotracker Red was removed with three washed of PBS solution. Mitotracker Red fluorescence was recorded at 581 (excitation) and 644 nm (emission).

AC16 cells [2] = experiment: mRNA levels of fusion and fission markers, quantitative PCR, LPS; type: cell-based, human
Experimental: AC16 cells were either left untreated or treated with Liposaccharide (LPS) in the absence or presence of SDG; the levels of DRP1, Opa, MFN1, MFN2, and FIS1 mRNAs were measured in quantitative PCR.
(§1) RNA purification and gene expression analysis—Total RNA was purified from AC16 cells or hearts using the TRIzol reagent according to the instructions of the manufacturer (Invitrogen). DNase-treated RNA was used for cDNA synthesis using the ProtoScript II First Strand cDNA Synthesis Kit (New England Biolabs). Quantitative real-time PCR was performed with the Sybr Select Master Mix (Applied Biosystems). Incorporation of the SYBR green dye into the PCR products was monitored with the Applied Biosystems StepOnePlus Real-Time PCR System. Samples were normalized against mouse 36B4 or human rps13 RNA.

IκBα = experiment: Phosphorylated and total IkBα immunoblot, ventricular tissue; type: in vivo, mouse; conditions: ventricular tissue 12 hours post-surgery
Experimental: (§2) Protein purification and analysis—Isolated heart tissue or AC16 cells were homogenized in radioimmune precipitation assay buffer containing protease and phosphatase inhibitors (Pierce Protease and Phosphatase Inhibitor Mini Tablets, Thermo Scientific). 30-50 μg of total protein extract was applied to SDS-PAGE and transferred onto nitrocellulose membranes.

[3] = test system: ventricular tissue of septic mice; experiment: DHE staining of cardiac tissue (ROS); type: in vivo, mouse; conditions: ventricular tissue 12 hours post-CLP, LGM2605 6 h post-CLP
Experimental: DHE staining of cardiac tissue—Live myocardium was isolated from mice 12 hours after surgery and sectioned into 10 sections using a clean razor blade. Tissue was stained with 20 μM dihydroethidium (DHE) for 30 minutes at room temperature and imaged on a Zeiss Axio Observer Z1 fluorescent microscope at 490±10 nm excitation and 632±30 nm emission. Oxidized DHE fluoresces red and intercalates DNA. Individual nuclei were measured within each visual field using Zeiss Zen Blue software, and visual fields were averaged to measure mean fluorescence intensity for each mouse.

[4] = test system: ventricular tissue of septic mice; experiment: Mitochondrial biogenesis, fusion and fission gene expression in ventricular tissue; type: in vivo, mouse
Experimental: as §1

[5] = test system: adult cardiomyocytes isolated from septic mice; experiment: Seahorse oxygen consumption rate in cardiomyocytes isolated from septic mice; type: in vivo, mouse
Experimental: Mice were either sham treated or subjected to cecal ligation puncture followed by SDG treatment. The oxygen consumption rate (OCR) was measured in a seahorse assay.
Adult mouse cardiomyocytes isolation—Adult mouse cardiomyocytes (ACMs) were isolated from ventricles of C57BL/6 mice 12 hours post-sham surgery, CLP surgery or combined performance of CLP and treatment with LGM2605 at 6 hours post-surgery. Hearts from heparinized mice (90 USP; ip) were cannulated through the aorta. Hearts were perfused with perfusion buffer (120.4 mMNaCl, 14.7 mM KCL, 0.6 mM NaH2PO4, 0.6 mM KH2PO4, 1.2 mM MgSO4, 10 mM Hepes, 4.6 mM NaHCO3, 30 mMtaurine, 10 mM BDM, 5.5 mM glucose; pH 7.4) for 3 min followed by digestion with perfusion buffer containing 19250 units Collagenese type II (Worthington), 5-6 mg trypsin and 0.02 mM CaCl2 for 7 min. Ventricles were gently teared into small pieces, perfusion buffer containing 5 mg/ml BSA and 0.125 mM CaCl2 was added and filtered with 100 μm nylon. The filtrate was pelleted by gravity for 5 min, centrifuged for 30 sec at 700 rpm and the pellet resuspended in perfusion buffer containing 5 mg/ml BSA and 0.225 mM CaCl2. The cells were pelleted by gravity for 10 min, centrifuged for 30 sec at 700 rpm and the pellet resuspended in perfusion buffer containing 5 mg/ml BSA and 0.525 mM CaCl2.
Seahorse analysis—Isolated primary ACMs were counted with Hematocytometer. Dead cells were detected with Trypan Blue Dye staining. Cells were platted (3000 cells per well) in XF96 Seahorse® plates pre-coated with laminin with 20 μg/ml laminin (Invitrogen, 23017). In order to assess oxygen consumption rates (OCR) for fatty acid oxidation (FAO) recordings, cells were incubated in substrate limited medium (DMEM containing 10 mM Glucose, 1.025 mM CaCl2, 0.5 mM carnitine, pH=7.4) and assayed with fatty acid oxidation medium as per manufacturer's protocol. Before starting the assay, 1 mM palmitate conjugated with BSA was added in each well. Drugs used for maximal response during fatty acid oxidation were: Oligomycin (3 μM) (Sigma, 04875) which blocks complex V, FCCP (2 μM) (Sigma, C2920) that leads to the collapse of the proton gradient, and Rotenone/Antimycin A (0.5 μM) (Sigma, A8674)/(Sigma, R8875) where rotenone blocks complex I and antimycin A blocks complex III. The pre-hydrated with XF assay calibrant, XF cartridges were filled with the drugs and the cartridge was calibrated for 30 minutes in Seahorse Analyzer. All experiments were performed at 37° C. Calculations were made as described in the Seahorse manual and XF Seahorse Mito Stress Test kit user guide. Briefly, basal respiration was calculated with subtraction of non-mitochondrial respiration rate from the last measurement prior to first injection. Maximal respiration was calculated by subtraction of the non-mitochondrial respiration measurement from maximum measurement after FCCP injection. ATP synthesis-related OCR was obtained indirectly by measuring ATP-linked respiration in the presence of complex V inhibitor (Oligomycin). The decrease of oxygen consumption rate representing the portion of basal respiration that was used to drive ATP synthesis was calculated with subtraction of the minimum measurement after Oligomycin injection from the last measurement prior to Oligomycin injection. Spare Respiratory Capacity was equal to (maximum respiration)−(basal respiration).

MCU and MICU1 = MCU and MICU1 mRNA and protein levels after LPS; type: in vivo, mouse; conditions: LPS with SDG
Experimental: Mice were either sham treated or treated with LPS in with or without SDG (n=3 for each group) and the levels of MCU and MICU1 mRNAs were measured in quantitative PCR while the levels of protein were assessed through western blot.
as §1, §2

[6] = CLP + LGM2605 (6 hrs post-CLP), cardiomyocytes 12 hrs after surgery

With COc1cc(C[C@@H](CO[C@@H]2O[C@H](CO)[C@@H](O)[C@H](O)[C@H]2O)[C@H](CO[C@@H]2O[C@H](CO)[C@@H](O)[C@H](O)[C@H]2O)Cc2ccc(O)c(OC)c2)ccc1O [LGM2605, secoisolariciresinol diglucoside] the “number of mitochondria (Mitotracker)” value (AC16 cells [1]; LPS 12 h with SDG/LGM2605) was “prevented by treatment with LGM2605”, the “number of mitochondria (Mitotracker)” value (AC16 cells [1]; LPS 12 h with SDG/LGM2605, listed as SDG) was “more than compensated for this LPS-dependent drop; also recorded: restored mitochondrial abundance in vitro and in vivo” and the “levels of DRP1, Opa, MFN1, MFN2, and FIS1 mRNAs” value (AC16 cells [2]; 6-hour LPS treatment (FIG. 8A)) was “restored the levels of all the markers”. The “levels of DRP1, Opa, MFN1, MFN2, and FIS1 mRNAs” value (AC16 cells [2]; 12 hour LPS treatment (FIG. 8B)) was “restored the levels of all the markers, although only the change in MFN2 levels was statistically significant”, the “phosphorylation of IκBα” value (IκBα) was “prevented by LGM2605” and the “ROS accumulation (DHE staining intensity)” value [3] was “alleviated significantly by LGM2605 administration”. For the same molecule, the “ROS accumulation (DHE staining intensity)” value ([3]; listed as SDG) was “reduced ROS accumulation”, the “mitochondrial biogenesis markers PGC1α, PGC1β, mtTFA gene expression” value ([4]; ventricular tissue 12 hours post-CLP) was “None of these changes was affected by LGM2605” and the “MFN1, MFN2, DRP1, and FIS1 expression” value ([4]; ventricular tissue 12 hrs after CLP) was “restored the CLP-mediated changes in MFN1, MFN2, DRP1, and FIS1 expression”. For the same molecule, the “basal respiration and oxygen consumption rate associated with ATP synthesis” value [5, 6] was “increased basal respiration levels (FIG. 18B) and oxygen consumption rate associated with ATP synthesis (FIG. 18C), compared to both CLP and sham mice”, the “maximal respiration and respiratory spare capacity” value [5, 6] was “markedly elevated by LGM2605 treatment” and the “maximal respiration, ATP production, non-mitochondrial oxygen consumption” value ([5]; CLP + SDG relative to levels observed after CLP) was “statistically significant increase in maximal respiration, ATP production, and non-mitochondrial oxygen consumption relative to levels observed after CLP”. For the same molecule, the “basal respiration, maximal respiration, ATP production, non-mitochondrial oxygen consumption” value ([5]; CLP + SDG relative to the untreated levels) was “statistically significant increase in basal respiration, maximal respiration, ATP production, and non-mitochondrial oxygen consumption relative to the untreated levels”, the “oxygen consumption rate (OCR)” value ([5]; CLP followed by SDG treatment vs CLP and sham, listed as SDG) was “more than compensated for that decrease; also recorded: increased oxygen consumption rate (OCR) compared to CLP alone and sham operated mice” and the proton leakage ([5]; sham, CLP, CLP + SDG) was “no statistically significant changes in proton leakage were observed”. For the same molecule, the “MCU and MICU1 mRNA levels” value (MCU and MICU1) was “restored mRNA expression”, the “MCU protein level (western blot)” value (MCU and MICU1) was “reverses the LPS-mediated decrease of MCU protein level” and the “MICU1 protein level (western blot)” value (MCU and MICU1) was “increases MICU1 protein level”.
